Test results as given in patent US20260240842A1, “METHODS TO PREVENT THERAPY RESISTANCE IN MELANOMA VIA BLOCKING GENOMIC INSTABILITY” (THE REGENTS OF THE UNIVERSITY OF CALIFORNIA, priority 2022, published 2026).

Tested on: KRAS^G12C PDAC cell lines (MIAPaCa-2, XWR200)
Test: Long-term clonogenic growth, acquired MAPKi resistance in PDAC cell lines
Type: cell-based, human
Settings: combined with MAPKi (type II RAFi+MEKi or KRAS G12Ci+MEKi); FIG. 6A to 6F
Excerpt: FIGS. 6A-6J. DNA-PKi co-treatment prevents acquired MAPKi-resistance in KRAS^G12 human pancreatic ductal adenocarcinoma and non-small cell lung carcinoma cell lines. FIGS. 6A to 6J: Long-term clonogenic growth of PDAC (MIAPaCa-2, XWR200) (6A to 6F) or NSCLC (H358, H2122) (6G to 6J) cell lines showing acquired-resistant colonies to MEKi alone, type II RAFi+MEKi, or KRAS G12Ci+MEKi and their suppression by indicated co-treatments with DNA-PKi (NU7026) and/or PARPi (ABT888) at indicated concentrations. Top, representative cultures; bottom, quantifications over n=4 fields (mean±SD). Data representative of 2 independent repeats. Seeding densities (cells/well in 6-well dishes) and culture durations: MIAPaCa-2 (10,000; 30 days for 6A-6C), XWR200 (150,000; 23 days for 6D, 30 days for 6E, 26 days for 6F), H358 (40,000; 14 days for 6G, 29 days for 6H, 26 days for 6I), H2122 (20,000, 22 days for 6J). […]
For clonogenic assay, cells were plated at indicated cell densities in six-well plates and treated with inhibitor(s) the next day. […] Formazan was then dissolved in 100 μL DMSO, and the absorbance values were measured using an ELISA reader (SpectraMax Plus 384) at the wavelength of 570 nm, blanked with DMSO solution. […]

Row | Structure (SMILES) | suppression of acquired MAPKi resistance, number of PDAC cell lines
1 | C[C@]1(c2nc3c(C(N)=O)cccc3[nH]2)CCCN1 [ABT888, veliparib] | generally ineffective
2 | O=c1cc(N2CCOCC2)oc2c1ccc1ccccc12 [NU7026] | two of two
